US8202887B2, “2-(substituted-amino)-benzothiazole sulfonamide HIV protease inhibitors” (Janssen R&D Ireland, priority 2006, dated 2012)
Like-named read-outs stand apart in the source and are kept apart here.

Columns and labels:
Type in all cases: cell-based
[1] = system: clinically isolated HIV strain C; experiment: Cellular anti-viral assay in MT4-LTR-EGFP cells, mutant strain C; settings: for EC50: Human immunodeficiency virus 1, 72 h, read-out: pEC50 virus strain C (converted); for pEC50 virus strain C: MT4-LTR-EGFP cells, three days, GFP signal
Procedure: (§1) Because of the increasing emergence of drug resistant HIV strains, the present compounds were tested for their potency against clinically isolated HIV strains harboring several mutations. These mutations are associated with resistance to protease inhibitors and result in viruses that show various degrees of phenotypic cross-resistance to the currently commercially available drugs such as for instance saquinavir, ritonavir, nelfinavir, indinavir and amprenavir. The viral strains coded as A, B, C and D contain mutations as indicated below in Table 2.
(§2) The cellular assay was performed according to the following procedure. HIV- or mock-infected MT4-LTR-EGFP cells were incubated for three days in the presence of various concentrations of the compounds according to the invention. Upon infection, the viral tat protein activates the GFP reporter. At the end of the incubation period, the GFP signal was measured. In the virus control samples (in the absence of any inhibitor) the maximal fluorescent signal was obtained. The inhibitory activity of the compound was monitored on the virus-infected cells and was expressed as EC50. These values represent the amount of the compound required to protect 50% of the cells from virus infection. (Table 3).

[2] = system: clinically isolated HIV strain B; experiment: Cellular anti-viral assay in MT4-LTR-EGFP cells, mutant strain B; settings: for EC50: Human immunodeficiency virus 1, 72 h, read-out: pEC50 virus strain B (converted); for pEC50 virus strain B: MT4-LTR-EGFP cells, three days, GFP signal
Procedure: as §1, §2

[3] = system: clinically isolated HIV strain A; experiment: Cellular anti-viral assay in MT4-LTR-EGFP cells, mutant strain A; settings: for EC50: Human immunodeficiency virus 1, 72 h, read-out: pEC50 virus strain A (converted); for pEC50 virus strain A: MT4-LTR-EGFP cells, three days, GFP signal
Procedure: as §1, §2

[4] = system: wild type laboratory HIV strain (WT IIIB-2-001); experiment: Cellular anti-viral assay in MT4-LTR-EGFP cells, wild type strain; settings: for EC50: Human immunodeficiency virus 1, IIIB, 72 h, read-out: pEC50 WT-IIIB-2-001 (converted)
Procedure: The compounds were tested in a cellular assay using the MT4-LTR-EGFP cells for anti-viral activity.
as §2, with “In the virus control samples (in the absence of any inhibitor) the maximal fluorescent signal was obtained.” left out, “infection.” for “infection. (Table 3).”

[5] = system: clinically isolated HIV strain D; experiment: Cellular anti-viral assay in MT4-LTR-EGFP cells, mutant strain D; settings: for EC50: Human immunodeficiency virus 1, 72 h, read-out: pEC50 virus strain D (converted); for pEC50 virus strain D: MT4-LTR-EGFP cells, three days, GFP signal
Procedure: as §1, §2

[6] = MT4-LTR-EGFP cells, three days, GFP signal

| SMILES | EC50 [1] [nM] | EC50 [2] [nM] | EC50 [3] [nM] | EC50 [4, 6] [nM] | EC50 [5] [nM] | pEC50 virus strain D [5] | pEC50 virus strain C [1] | pEC50 virus strain B [2] | pEC50 virus strain A [3] | pEC50 WT-IIIB-2-001 [4, 6] | pEC50 WT-IIIB-2-001 [4] |
| --- | --- | --- | --- | --- | --- | --- | --- | --- | --- | --- | --- |
| COCCN1CCC(Nc2nc3ccc(S(=O)(=O)N(CC(C)C)C[C@@H](O)[C@H](Cc4ccccc4)NC(=O)O[C@H]4CO[C@H]5OCC[C@H]54)cc3s2)C1 (stereo in doubt) [Compound 17, [1-Benzyl-2-hydroxy-3-(isobutyl-{2-[1-(2-methoxy-ethyl)-pyrrolidin-3-ylamino]-benzothiazole-6-sulfonyl}-amino)-propyl]-carbamic acid hexahydro-furo[2,3-b]furan-3-yl ester] | 3390 | 17 | 13.2 | 18.6 | – | – | – | – | – | – | – |
| CC(C)CN(C[C@@H](O)[C@H](Cc1ccccc1)NC(=O)O[C@H]1CO[C@H]2OCC[C@H]21)S(=O)(=O)c1ccc2nc(NC3CCN(Cc4cccnc4)C3)sc2c1 (stereo in doubt) [Compound 21, (1-Benzyl-2-hydroxy-3-{isobutyl-[2-(1-pyridin-3-ylmethyl-pyrrolidin-3-ylamino)-benzothiazole-6-sulfonyl}-amino]-propyl)-carbamic acid hexahydro-furo[2,3-b]furan-3-yl ester] | 1820 | 14.5 | 4.9 | 11.2 | 7.08 | – | – | – | – | – | – |
| CC(C)CN(C[C@@H](O)[C@H](Cc1ccccc1)NC(=O)O[C@H]1CO[C@H]2OCC[C@H]21)S(=O)(=O)c1ccc2nc(NC3CCN(C(C)C)CC3)sc2c1 [Compound 5] | – | – | – | – | – | 7.86 | 5.38 | 7.57 | 7.89 | 7.72 | – |
| CC(C)CN1CCC(Nc2nc3ccc(S(=O)(=O)N(CC(C)C)C[C@@H](O)[C@H](Cc4ccccc4)NC(=O)O[C@H]4CO[C@H]5OCC[C@H]54)cc3s2)CC1 [Compound 6] | – | – | – | – | – | 7.86 | 5.46 | 7.58 | 7.84 | 8.31 | – |
| COCCN1CCC(Nc2nc3ccc(S(=O)(=O)N(CC(C)C)C[C@@H](O)[C@H](Cc4ccccc4)NC(=O)O[C@H]4CO[C@H]5OCC[C@H]54)cc3s2)CC1 [Compound 8] | – | – | – | – | – | – | 5.25 | 7.00 | 6.65 | 7.44 | – |
| CC(C)CN(C[C@@H](O)[C@H](Cc1ccccc1)NC(=O)O[C@H]1CO[C@H]2OCC[C@H]21)S(=O)(=O)c1ccc2nc(NC3CCN(C(=O)CN(C)C)CC3)sc2c1 [Compound 9] | – | – | – | – | – | 6.99 | 5.00 | 6.59 | 6.99 | 6.56 | – |
| CC(C)CN(C[C@@H](O)[C@H](Cc1ccccc1)NC(=O)O[C@H]1CO[C@H]2OCC[C@H]21)S(=O)(=O)c1ccc2nc(NC3CCN(C(=O)CN4CCOCC4)CC3)sc2c1 [Compound 10] | – | – | – | – | – | 6.62 | 5.11 | 6.52 | 6.84 | 6.53 | – |
| CC(C)CN(C[C@@H](O)[C@H](Cc1ccccc1)NC(=O)O[C@H]1CO[C@H]2OCC[C@H]21)S(=O)(=O)c1ccc2nc(NC3CCN(Cc4ccccc4)CC3)sc2c1 [Compound 11, (1-Benzyl-3-{[2-(1-benzyl-piperidin-4-ylamino)-benzothiazole-6-sulfonyl]-isobutyl-amino}-2-hydroxy-propyl)-carbamic acid hexahydro-furo[2,3-b]furan-3-yl ester] | 5750 | 33.9 | 22.4 | 2.51 | 18.6 | – | – | – | – | – | – |
| CC(C)CN(C[C@@H](O)[C@H](Cc1ccccc1)NC(=O)O[C@H]1CO[C@H]2OCC[C@H]21)S(=O)(=O)c1ccc2nc(NC3CCN(Cc4ccncc4)CC3)sc2c1 [Compound 12] | – | – | – | – | – | 8.27 | 5.19 | 7.71 | 8.26 | 8.34 | – |
| CC(C)CN(C[C@@H](O)[C@H](Cc1ccccc1)NC(=O)O[C@H]1CO[C@H]2OCC[C@H]21)S(=O)(=O)c1ccc2nc(NC3CCN(Cc4ccccn4)CC3)sc2c1 [Compound 13] | – | – | – | – | – | 7.98 | 6.04 | 7.94 | 8.06 | 8.18 | – |
| CC(C)CN(C[C@@H](O)[C@H](Cc1ccccc1)NC(=O)O[C@H]1CO[C@H]2OCC[C@H]21)S(=O)(=O)c1ccc2nc(NC3CCN(Cc4cccnc4)CC3)sc2c1 [Compound 14] | – | – | – | – | – | 7.84 | 5.90 | 7.78 | 7.85 | – | 7.85 |
| CC(C)CN(C[C@@H](O)[C@H](Cc1ccccc1)NC(=O)O[C@H]1CO[C@H]2OCC[C@H]21)S(=O)(=O)c1ccc2nc(NC3CCN(Cc4cncs4)CC3)sc2c1 [Compound 15] | – | – | – | – | – | 8.24 | 5.46 | 7.71 | 8.38 | – | 8.24 |
| CC(C)CN(C[C@@H](O)[C@H](Cc1ccccc1)NC(=O)O[C@H]1CO[C@H]2OCC[C@H]21)S(=O)(=O)c1ccc2nc(NC3CCNC3)sc2c1 (stereo partly shown) [Compound 16] | – | – | – | – | – | – | 5.90 | 5.89 | 5.93 | 6.82 | – |
| COCCN1CCC(Nc2nc3ccc(S(=O)(=O)N(CC(C)C)CC(O)C(Cc4ccccc4)NC(=O)OC4COC5OCCC45)cc3s2)C1 (stereo not shown) [Compound 18] | – | – | – | – | – | – | 5.32 | 7.24 | 7.61 | 7.76 | – |
| CC(C)CN1CCC(Nc2nc3ccc(S(=O)(=O)N(CC(C)C)CC(O)C(Cc4ccccc4)NC(=O)OC4COC5OCCC45)cc3s2)C1 (stereo not shown) [Compound 19] | – | – | – | – | – | 7.75 | 5.35 | 7.33 | 7.84 | 8.42 | – |
| CC(C)CN1CCC(Nc2nc3ccc(S(=O)(=O)N(CC(C)C)CC(O)C(Cc4ccccc4)NC(=O)OC4COC5OCCC45)cc3s2)C1 (stereo not shown) [Compound 20] | – | – | – | – | – | 8.12 | 5.59 | 7.84 | 8.23 | 8.27 | – |
| CC(C)CN(CC(O)C(Cc1ccccc1)NC(=O)OC1COC2OCCC12)S(=O)(=O)c1ccc2nc(NC3CCN(Cc4ccncc4)C3)sc2c1 (stereo not shown) [Compound 22] | – | – | – | – | – | – | 6.19 | 7.77 | – | 7.71 | – |
| CC(C)CN(CC(O)C(Cc1ccccc1)NC(=O)OC1COC2OCCC12)S(=O)(=O)c1ccc2nc(NC3CCN(Cc4cncs4)C3)sc2c1 (stereo not shown) [Compound 23] | – | – | – | – | – | 8.27 | 5.36 | 7.56 | 8.56 | 7.97 | – |
| CC(C)CN(CC(O)C(Cc1ccccc1)NC(=O)OC1COC2OCCC12)S(=O)(=O)c1ccc2nc(NC3CCN(Cc4cncs4)C3)sc2c1 (stereo not shown) [Compound 24] | – | – | – | – | – | 7.89 | 5.08 | 7.70 | 7.91 | 8.22 | – |
| CC(C)CN(CC(O)C(Cc1ccccc1)NC(=O)OC1COC2OCCC12)S(=O)(=O)c1ccc2nc(NC3CCN(Cc4ccccn4)C3)sc2c1 (stereo not shown) [Compound 25] | – | – | – | – | – | 5.41 | <4.49 | 5.04 | 5.59 | 5.77 | – |
